Laboratory results reported in US20080039432A1, “Active Compound Combinations Having Insecticidal Properties” (priority 2004, published 2008).
Read-outs that look alike come from different tables or passages of the source.

Legend:
Type in all cases: in vivo
Myzus persicae = tested on: Myzus persicae
Protocol: (§1) To produce a suitable preparation of active compound, 1 part by weight of active compound is mixed with the stated amounts of solvent and emulsifier, and the concentrate is diluted with emulsifier-containing water to the desired concentration.
Cabbage leaves (Brassica oleracea) which are heavily infested by the green peach aphid (Myzus persicae) are treated by being dipped into the preparation of active compound of the desired concentration.
After the desired period of time, the kill in % is determiined. 100% means that all aphids have been killed; 0% means that none of the aphids have been killed. The determined kill rates are entered into Colby's formula.

[1] = tested on: Phaedon cochleariae larvae; test: Phaedon cochleariae larvae test (cabbage leaf dip)
Protocol: Phaedon Cochleariae Larvae Test
as §1
Cabbage leaves (Brassica oleracea) are treated by being dipped into the active compound preparation of the desired concentration and are populated with larvae of the mustard beetle (Phaedon cochleariae) while the leaves are still moist.
After the desired period of time, the kill in % is determined. 100% means that all larvae have been killed; 0% means that none of the larvae have been killed. The determined kill rates are entered into Colby's formula.

[2] = tested on: Plutella xylostella, resistant strain; conditions: Table A, 20 ppm, caterpillars on dipped cabbage leaves
Protocol: Plutella Xylostella Test, Resistant Strain
as §1
Cabbage leaves (Brassica oleracea) are treated by being dipped into the active compound preparation of the desired concentration and are populated with caterpillars of the diamondback moth (Plutella xylostella, resistant strain) while the leaves are still moist.
After the desired period of time, the kill in % is determined. 100% means that all caterpillars have been killed; 0% means that none of the caterpillars have been killed. The determined kill rates are entered into Colby's formula.

Compound: CNC(=O)O/N=C/C(C)(C)SC [aldicarb]
- Kill in % after 1 d (Myzus persicae; Table B1, 4 ppm): 45%
- Kill in % after 1 d ([1]; Table C1, 20 ppm): 25%
- Kill in % after 1 d ([1]; Table C2, 20 ppm): 25%

Compound: CN/C(=N/[N+](=O)[O-])NCc1cnc(Cl)s1 [clothianidin]
- Kill in % after 6 days [2]: 0%
- Kill in % after 1 d (Myzus persicae; Table B1, 0.80 ppm): 50%
- Kill in % after 1 d ([1]; Table C2, 4 ppm): 65%

Compound: O=[N+]([O-])N=C1NCCN1Cc1ccc(Cl)nc1 [imidacloprid]
- Kill in % after 1 d (Myzus persicae; Table B1, 0.16 ppm): 20%
- Kill in % after 1 d (Myzus persicae; Table B2, 0.16 ppm): 10%
- Kill in % after 1 d ([1]; Table C1, 4 ppm): 5%
- Kill in % after 1 d ([1]; Table C2, 4 ppm): 20%

Compound: ethoprophos
- Kill in % after 6 days [2]: 5%
- Kill in % after 1 d (Myzus persicae; Table B2, 20 ppm): 0%
